# Measured values from patent EP4603105A1, “PHARMACEUTICAL COMPOSITION CONTAINING CYCLIC COMPOUND HAVING SELECTIVE KRAS INHIBITORY EFFECT AGAINST HRAS AND NRAS” (CHUGAI SEIYAKU KABUSHIKI KAISHA, priority 2022, dated 2024).
# Where two headings read alike, the source gives them in different places.
# Key:
# [1] = biological target: GDP-bound KRAS wild-type protein (Homo sapiens, UniProt P01116); experiment: Binding to KRAS by surface plasmon resonance (SPR), dissociation constant KD
# Outline: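 Read-out is KD from 1:1 fitting of single-cycle kinetics sensorgrams, blank-cycle and reference-surface corrected. Proteins were GDP-loaded, biotinylated Avi-fusions freshly captured each cycle at roughly 100–300 RU. Runs were at 30°C in HBS pH 7.4 with MgCl2, GDP and 4% DMSO.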
# [2] = tested on: human lung cancer strain NCI-H441; experiment: NCI-H441 cell proliferation inhibitory activity (CellTiter-Glo, 4 days); type: cell-based; conditions: read-out: NCl-H441 IC50
# Outline: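 Readout: […] after the ATP-based reagent. Compound: serial dilutions in dimethyl sulfoxide.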
# HRAS wild-type protein = HRAS wild-type protein (Homo sapiens, UniProt P01112); experiment: Binding to HRAS by surface plasmon resonance (SPR), KD and KD ratio to KRAS
# Outline: (§1)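 Affinity is measured by surface plasmon resonance at 30°C against captured, GDP-loaded RAS carrying a biotinylated Avi tag. Compounds are titrated by single-cycle kinetics, and KD comes from a 1:1 fit.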
# [3] = biological target: GDP-bound NRAS wild-type protein (Homo sapiens, UniProt P01111); experiment: Binding to NRAS by surface plasmon resonance (SPR), KD and KD ratio to KRAS
# Outline: as §1
# [4] = ratio of KD for HRAS wild-type protein to KD for KRAS
# [5] = ratio of KD for GDP-bound NRAS wild-type protein to KD for KRAS
# Chain of GDP-bound KRAS wild-type protein (P01116 1-188 isoform P01116-2): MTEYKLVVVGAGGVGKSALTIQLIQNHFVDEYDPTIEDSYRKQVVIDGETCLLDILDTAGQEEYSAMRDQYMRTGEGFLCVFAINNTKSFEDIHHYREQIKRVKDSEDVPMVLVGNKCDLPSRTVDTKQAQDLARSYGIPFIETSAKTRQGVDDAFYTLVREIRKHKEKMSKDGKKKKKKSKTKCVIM
# Chain of HRAS wild-type protein (P01112 whole entry): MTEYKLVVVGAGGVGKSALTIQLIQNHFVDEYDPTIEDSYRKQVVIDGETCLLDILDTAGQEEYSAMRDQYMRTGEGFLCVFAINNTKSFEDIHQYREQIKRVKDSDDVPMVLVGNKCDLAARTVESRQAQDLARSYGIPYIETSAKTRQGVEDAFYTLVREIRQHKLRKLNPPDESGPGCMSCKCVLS
# Chain of GDP-bound NRAS wild-type protein (P01111 whole entry): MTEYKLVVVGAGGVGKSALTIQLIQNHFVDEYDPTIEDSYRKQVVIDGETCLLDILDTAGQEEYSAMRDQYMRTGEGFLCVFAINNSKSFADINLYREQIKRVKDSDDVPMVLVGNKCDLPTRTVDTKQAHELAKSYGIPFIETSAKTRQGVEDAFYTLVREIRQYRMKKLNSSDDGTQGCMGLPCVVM
Compound,"Kd ([1]; Single Cycle Kinetics, 1:1 binding model)","IC50 ([2]; 50% proliferation inhibitory concentration, four days)",Kd ([1]; Single Cycle Kinetics),"IC50 ([2]; NCI-H441 cells, 4 days)",Kd ([1]; 1:1 binding model),HRAS /KRAS (HRAS wild-type protein; ratio of KD with respect to HRAS wild-type protein to KD with respect to KRAS),NRAS /KRAS ([3]; ratio of KD with respect to GDP-bound NRAS wild-type protein to KD with respect to KRAS),HRAS /KRAS (HRAS wild-type protein; [4]),"NRAS /KRAS [3, 5]"
CCO[C@@H]1C[C@H]2C(=O)NC3(CCC3)C(=O)N(C)[C@@H](C3CCCC3)C(=O)N(C)[C@H](C(=O)N3CCC3)CC(=O)N(C)[C@@H](CC)C(=O)N[C@@H]([C@@H](C)CC)C(=O)N(C)CC(=O)N(C)[C@H]3C/C=C\CCN(C3=O)[C@@H](CC3CCCCC3)C(=O)N(C)CC(=O)N[C@@H](CCc3cc(F)c(C(F)(F)F)c(F)c3)C(=O)N2C1 [PP1445],0.27 nM,92.8 nM,,,,A (a compound having 10 or more and less than 20 is denoted as A),A (a compound having 10 or more and less than 20 is denoted as A),,
CCC[C@H]1C(=O)N[C@@H](C2CCCC2)C(=O)N(C)CC(=O)N(C)[C@H]2C/C=C\CCN(C2=O)[C@@H](Cc2ccc(C)cc2)C(=O)N(C)CC(=O)N[C@@H](CCc2ccc(C(F)(F)F)c(Cl)c2)C(=O)N2CC3(CC3)C[C@H]2C(=O)N(C)C2(CCC2)C(=O)N(C)[C@@H](CC(C)(C)C)C(=O)N(C)[C@H](C(=O)N(C)C)CC(=O)N1C [PP3328],,,0.026 nM,1.7 nM,,,,B (a compound having 3 or more and less than 10 is denoted as B),A (a compound having 10 or more and less than 20 is denoted as A)

# Second part, led by results:
"Kd ([1]; Single Cycle Kinetics, 1:1 binding model)","IC50 ([2]; 50% proliferation inhibitory concentration, four days)",Kd ([1]; Single Cycle Kinetics),"IC50 ([2]; NCI-H441 cells, 4 days)",Kd ([1]; 1:1 binding model),Compound,HRAS /KRAS (HRAS wild-type protein; ratio of KD with respect to HRAS wild-type protein to KD with respect to KRAS),NRAS /KRAS ([3]; ratio of KD with respect to GDP-bound NRAS wild-type protein to KD with respect to KRAS),HRAS /KRAS (HRAS wild-type protein; [4]),"NRAS /KRAS [3, 5]"
,,0.17 nM,12.2 nM,,CCO[C@@H]1C[C@H]2C(=O)NC3(CCC3)C(=O)N(C)[C@@H](C3CCCC3)C(=O)N(C)[C@H](C(=O)N(C)C)CC(=O)N(C)[C@@H](CC(C)C)C(=O)N[C@@H]([C@@H](C)CC)C(=O)N(C)CC(=O)N(C)[C@H]3C/C(F)=C\CCN(C3=O)[C@@H](Cc3ccc(C(F)(F)F)cc3)C(=O)N(C)CC(=O)N[C@@H](CCc3cc(F)c(C(F)(F)F)c(F)c3)C(=O)N2C1 [PP3514],,,B (a compound having 3 or more and less than 10 is denoted as B),B (a compound having 3 or more and less than 10 is denoted as B)
,,1.5 nM,4.7 nM,,CCC[C@H]1C(=O)N[C@@H]([C@@H](C)CC)C(=O)N(C)CC(=O)N(C)[C@H]2C/C=C\CCN(C2=O)[C@@H](Cc2ccc(C(F)(F)F)cc2)C(=O)N(C)CC(=O)N[C@@H](CCc2ccc(C(F)(F)F)c(OC)c2)C(=O)N2CC3(CC3)C[C@H]2C(=O)N(C)C2(CCC2)C(=O)N(C)[C@@H](C(CC)CC)C(=O)N(C)[C@H](C(=O)N(C)C)CC(=O)N1C [PP3361],,,A (a compound having 10 or more and less than 20 is denoted as A),A (a compound having 10 or more and less than 20 is denoted as A)
,,,7.9 nM,0.065 nM,CC[C@H](C)[C@@H]1NC(=O)[C@H](COC)N(C)C(=O)C[C@@H](C(=O)N(C)C)N(C)C(=O)[C@H](C2CCCC2)N(C)C(=O)C2(CC(C)(C)C2)NC(=O)[C@@H]2C[C@H](C)CN2C(=O)[C@H](CCc2ccc(C(F)(F)F)c(Cl)c2)NC(=O)CN(C)C(=O)[C@H](Cc2ccc(C)cc2)N2CC/C=C\C[C@@H](C2=O)N(C)C(=O)CN(C)C1=O [PP2502],,,A (a compound having 10 or more and less than 20 is denoted as A),A (a compound having 10 or more and less than 20 is denoted as A)
,,0.2 nM,21.3 nM,,CCCC[C@@H]1NC(=O)C[C@@H](C(=O)N(C)C)N(C)C(=O)[C@H](C2CCCC2)N(C)C(=O)C2(CC(C)(C)C2)NC(=O)[C@@H]2C[C@@H](OCC)CN2C(=O)[C@H](CCc2ccc(C(F)(F)F)c(OC)c2)NC(=O)CN(C)C(=O)[C@H](Cc2ccc(C(F)(F)F)cc2)N2CC/C=C\C[C@@H](C2=O)N(C)C(=O)CN(C)C(=O)[C@H]([C@@H](C)CC)NC1=O [PP3446],,,A (a compound having 10 or more and less than 20 is denoted as A),A (a compound having 10 or more and less than 20 is denoted as A)
